# Laboratory results published in PubChem BioAssay AID248 (DTP/NCI, 2004).
# “And” between values parts separate entries of the source, which are not always exact repeats. Equal entries are not always repeated. Toxic doses and inconclusive results are not listed. Peptide text beside a SMILES is read from it. * marks the point of attachment. Trt = c1ccc(C(c2ccccc2)(c2ccccc2)*)cc1; Cbz = O=C(OCc1ccccc1)*; NHNH2 = NN*
# Tested on: L1210 leukemia ip in BDF1 mice, survival T/C
# Assay: NCI In Vivo Anticancer Drug Screen. Data for tumor model L1210 Leukemia (intraperitoneal) in B6D2F1 (BDF1) mice
# Details: endpoint: mean survival time, higher = longer survival
# Outline: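 Read-out is survival time, reported as the treated-group measurement over the vehicle-control measurement.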
# [1] = dose: 25.0 mg/kg/injection, schedule: Q04DX002 (ip), vehicle: Klucel (hydroxypropylcellulose) (HPC)
# [2] = dose: 50.0 mg/kg/injection, schedule: Q04DX002 (ip), vehicle: Klucel (hydroxypropylcellulose) (HPC)
# [3] = dose: 100.0 mg/kg/injection, schedule: Q01DX001 (ip), vehicle: saline
smiles,measurement,setting,value
O=[N+]([O-])c1cc2cc(Br)ccc2o1,T/C,"dose: 12.5 mg/kg/injection, schedule: Q04DX002 (ip), vehicle: Klucel (hydroxypropylcellulose) (HPC)",102 % of control
same,T/C,[1],106 % of control
same,T/C,[2],97 % of control
Cc1cccc(C[Si](C)C)c1,T/C,[3],95 % of control and 104 % of control
same,T/C,"dose: 200.0 mg/kg/injection, schedule: Q01DX001 (ip), vehicle: saline",124 % of control
same,T/C,"dose: 400.0 mg/kg/injection, schedule: Q01DX001 (ip), vehicle: saline",93 % of control and 98 % of control
O=C(CCl)N(c1ccccc1)c1ccccc1,T/C,[1],101 % of control and 107 % of control
same,T/C,[2],103 % of control
same,T/C,"dose: 100.0 mg/kg/injection, schedule: Q04DX002 (ip), vehicle: Klucel (hydroxypropylcellulose) (HPC)",95 % of control and 92 % of control
Cc1c(O)c2ccc3ccccc3c2oc1=O,T/C,"dose: 100.0 mg/kg/injection, schedule: Q04DX003 (ip), vehicle: saline",97 % of control
same,T/C,"dose: 200.0 mg/kg/injection, schedule: Q04DX003 (ip), vehicle: saline",91 % of control
ClCCN(CC#CCCCC#CCN(CCCl)CCCl)CCCl,T/C,[3],168 % of control
COP(=O)(O)Oc1ccccc1,T/C,"dose: 87.5 mg/kg/injection, schedule: Q01DX009 (ip), vehicle: saline with Tween-80",100 % of control
same,T/C,"dose: 175.0 mg/kg/injection, schedule: Q01DX009 (ip), vehicle: saline with Tween-80",100 % of control
NNC(=O)C(Cc1ccc(O)cc1)NC(=O)C(CO)NC(=O)C(CSC(c1ccccc1)(c1ccccc1)c1ccccc1)NC(=O)OCc1ccccc1 (stereo not drawn) (Cbz-Cys(Trt)-Ser-Tyr-NHNH2; configuration not given here),T/C,"dose: 75.0 mg/kg/injection, schedule: Q01DX001 (ip), vehicle: saline",96 % of control
same,T/C,"dose: 150.0 mg/kg/injection, schedule: Q01DX001 (ip), vehicle: saline",96 % of control
same,T/C,"dose: 300.0 mg/kg/injection, schedule: Q01DX001 (ip), vehicle: saline",90 % of control
C=CCCCCCCCCC(=O)O,T/C,"dose: 100.0 mg/kg/injection, schedule: Q01DX009 (ip), vehicle: other",104 % of control
same,T/C,"dose: 100.0 mg/kg/injection, schedule: Q04DX002 (ip), vehicle: other",87 % of control
same,T/C,"dose: 200.0 mg/kg/injection, schedule: Q01DX009 (ip), vehicle: other",93 % of control
same,T/C,"dose: 200.0 mg/kg/injection, schedule: Q04DX002 (ip), vehicle: other",112 % of control
same,T/C,"dose: 400.0 mg/kg/injection, schedule: Q01DX009 (ip), vehicle: other",89 % of control
CCCCCCC(=O)CCCCCC/C=C/CC(O)C(O)C(N)(CO)C(=O)O (stereo not drawn),T/C,"dose: 0.78 mg/kg/injection, schedule: Q04DX002 (ip), vehicle: saline with Tween-80",104 % of control
same,T/C,"dose: 1.56 mg/kg/injection, schedule: Q04DX002 (ip), vehicle: saline with Tween-80",104 % of control
same,T/C,"dose: 3.13 mg/kg/injection, schedule: Q04DX002 (ip), vehicle: saline with Tween-80",100 % of control
Cc1cc(Cl)ccc1NC(=O)Oc1cc(C)c(Cl)c(C)c1Cl,T/C,"dose: 25.0 mg/kg/injection, schedule: Q01DX009 (ip), vehicle: saline with Tween-80",100 % of control and 90 % of control
same,T/C,"dose: 50.0 mg/kg/injection, schedule: Q01DX009 (ip), vehicle: saline with Tween-80",95 % of control and 103 % of control
same,T/C,"dose: 100.0 mg/kg/injection, schedule: Q01DX001 (ip), vehicle: saline with Tween-80",94 % of control
same,T/C,"dose: 100.0 mg/kg/injection, schedule: Q04DX003 (ip), vehicle: saline with Tween-80",93 % of control and 109 % of control
same,T/C,"dose: 200.0 mg/kg/injection, schedule: Q01DX001 (ip), vehicle: saline with Tween-80",97 % of control
same,T/C,"dose: 200.0 mg/kg/injection, schedule: Q01DX009 (ip), vehicle: saline with Tween-80",97 % of control and 105 % of control
same,T/C,"dose: 200.0 mg/kg/injection, schedule: Q04DX003 (ip), vehicle: saline with Tween-80",97 % of control and 108 % of control
same,T/C,"dose: 400.0 mg/kg/injection, schedule: Q01DX001 (ip), vehicle: saline with Tween-80",101 % of control
same,T/C,"dose: 400.0 mg/kg/injection, schedule: Q01DX009 (ip), vehicle: saline with Tween-80",90 % of control
same,T/C,"dose: 400.0 mg/kg/injection, schedule: Q04DX003 (ip), vehicle: saline with Tween-80",103 % of control and 113 % of control
CCOC(=O)C(Cc1ccc(O)cc1)Nc1nc2ccccc2o1 (stereo not drawn),T/C,"dose: 100.0 mg/kg/injection, schedule: Q01DX001 (ip), vehicle: carboxymethylcellulose (CMC)",96 % of control
same,T/C,"dose: 200.0 mg/kg/injection, schedule: Q01DX001 (ip), vehicle: carboxymethylcellulose (CMC)",96 % of control
same,T/C,"dose: 400.0 mg/kg/injection, schedule: Q01DX001 (ip), vehicle: carboxymethylcellulose (CMC)",96 % of control
Nc1ccc(OCc2ccc(C(=O)Nc3cccc(S(=O)(=O)F)c3)cc2)c(Cl)c1,T/C,"dose: 100.0 mg/kg/injection, schedule: Q04DX003 (ip), vehicle: Klucel (hydroxypropylcellulose) (HPC)",100 % of control
same,T/C,"dose: 200.0 mg/kg/injection, schedule: Q04DX003 (ip), vehicle: Klucel (hydroxypropylcellulose) (HPC)",108 % of control
same,T/C,"dose: 400.0 mg/kg/injection, schedule: Q04DX003 (ip), vehicle: Klucel (hydroxypropylcellulose) (HPC)",96 % of control
CC1CN=C(c2ccc(NC(=O)NCCCCCCCCCCCCNC(=O)Nc3ccc(C4=NCC(C)N4)cc3)cc2)N1 (stereo not drawn),T/C,"dose: 12.5 mg/kg/injection, schedule: Q01DX Z (ip), vehicle: carboxymethylcellulose (CMC)",95 % of control
same,T/C,"dose: 125.0 mg/kg/injection, schedule: Q01DX Z (ip), vehicle: carboxymethylcellulose (CMC)",104 % of control
